Experimental findings from patent publication US11753407B2, “Compounds for treating spinal muscular atrophy” (PTC Therapeutics, Inc., priority 2012, dated 2023) are described below.

Test [1] relates to neonatal SMA Δ7 homozygous knockout mice. Kind of test: Righting reflex in neonatal Δ7 SMA mice. The class given is in vivo. Conditions: IP QD from PND 3, versus vehicle (FIG. 14). Here is the method:
The functional change in righting reflex of neonatal SMA mice is used to determine whether treatment with a test compound improves righting reflex.
Protocol. SMA Δ7 homozygous knockout mice are dosed intraperitoneally (IP) with test compound or vehicle (100% DMSO) QD from PND 3 until the dose regimen is switched to an oral dose BID in 0.5% hydroxypropylmethyl cellulose (HPMC) with 0.1% Tween-80 at a dose 3.16-fold higher than the dose used for IP. The righting reflex time is measured as the time taken by a mouse to flip over onto its feet after being laid on its back. Righting reflex is measured five times for each mouse (allowing a maximal time of 30 sec for each try) with 5 minutes between each measurement. The righting reflex time for SMA Δ7 homozygous knockout mice treated with test compound or vehicle and age-matched heterozygous mice is measured on PND 10, 14 and 18 and plotted.

The subject of test [2] is SMN2 mRNA in GM03813 SMA patient cells. Kind of test: Endogenous SMN2 mRNA RT-qPCR splicing assay in cultured cells. The class given is cell-based, human. Conditions: Type 1 SMA patient fibroblasts, increasing concentrations, 24 hr, versus vehicle (FIG. 4). The method, then:
The reverse transcription-quantitative PCR-based (RT-qPCR) assay is used to quantify the levels of the full length and Δ7 SMN2 mRNA in primary cells and cell lines containing the SMN2 gene treated with a test compound.
Protocol. GM03813 SMA patient cells (5,000 cells/well) are seeded in 200 μL of cell culture medium (DMEM plus 10% FBS) in 96-well flat-bottom plates and the plate is immediately swirled to ensure proper dispersal of cells, forming an even monolayer of cells. Cells are allowed to attach for at least 4-6 hrs. Test compounds are serially diluted 3.16-fold in 100% DMSO to generate a 7-point concentration curve. A solution of test compound (1 μL, 200× in DMSO) is added to each test well and 1 μL DMSO is added to each control well. The plate is incubated for 24 hrs in a cell culture incubator (37° C., 5% CO2, 100% relative humidity). The cells are then lysed in Cells-To-Ct lysis buffer and the lysate is stored at −80° C.
SMN2-specific spliced products and GAPDH mRNA are identified using the following primers and probes in Table 5. Primer SMN FL Forward B (SEQ ID NO. 7) hybridizes to a nucleotide sequence in exon 7 (nucleotide 32 to nucleotide 54) and exon 8 (nucleotide 1 to nucleotide 4), primer SMN Δ7 Forward B (SEQ ID NO. 8) hybridizes to a nucleotide sequence in exon 6 (nucleotide 87 to nucleotide 111) and exon 8 (nucleotide 1 to nucleotide 3), primer SMN Reverse B (SEQ ID NO. 9) hybridizes to a nucleotide sequence in exon 8 (nucleotide 39 to nucleotide 62), probe SMN Probe B (SEQ ID NO. 10) hybridizes to a nucleotide sequence in exon 8 (nucleotide 7 to nucleotide 36). These primers and probes hybridize to nucleotide sequences common to human SMN1 and SMN2 mRNA. Since the SMA patient cells used in Example 3 contain only the SMN2 gene, RT-qPCR can quantify only SMN2 full-length and Δ7 mRNA.
The SMN forward and reverse primers are used at final concentrations of 0.4 μM. The SMN probe is used at a final concentration of 0.15 μM. GAPDH primers are used at final concentrations of 0.1 μM and the probe at 0.075 μM. […]
The increase of SMN2 FL and decrease in SMN2 Δ7 mRNA relative to those in cells treated with vehicle control are determined from real-time PCR data using a modified ΔΔCt method (as described in Livak and Schmittgen, Methods, 2001, 25:402-8). The amplification efficiency (E) is calculated from the slope of the amplification curve for SMN2 FL, SMN2 Δ7, and GAPDH individually. The abundances of SMN2 FL, SMN2 Δ7, and GAPDH are then calculated as (1+E)^−Ct, where Ct is the threshold value for each amplicon. […]
(Quantitative PCR measures a nucleic acid by following its amplification.)

In the case of `COc1ccc(-c2cc(=O)n3cc(N4CCNCC4)ccc3n2)cc1OC` [Cpd 6, 2-(3,4-dimethoxyphenyl)-7-(piperazin-1-yl)-4H-pyrido[1,2-a]pyrimidin-4-one], the righting reflex result in test [1] is listed as “improved compared to vehicle treated mice”. Moreover, in test [2], the “SMN2 FL mRNA” value is “progressively more SMN2 FL mRNA” and the “SMN2 Δ7 mRNA” value was “less SMN2 Δ7 mRNA”.

For `Cc1cn2nc(-c3cc(=O)n4cc(N5CCN(C)CC5)ccc4n3)cc2c(C)n1` [Cpd 170, 2-(4,6-dimethylpyrazolo[1,5-a]pyrazin-2-yl)-7-(4-methylpiperazin-1-yl)-4H-pyrido[1,2-a]pyrimidin-4-one], the righting reflex result in test [1] was “improved compared to vehicle treated mice”. Further, in test [2], the “SMN2 FL mRNA” value was “progressively more SMN2 FL mRNA” and the “SMN2 Δ7 mRNA” value is “less SMN2 Δ7 mRNA”.
